pEC50: −log10 of the molar value. “Also recorded” adds a separate entry of the source.
Tests used:
WT HIV-1 = type: cell-based; conditions: for antiviral activity in the single replication cycle assay: concentrations up to 10 μM, data not shown
[1] = target: AZT-resistant HIV-1 RT (AZTr) D67N/K70R/T215F/K219Q (Human immunodeficiency virus type 1 group M subtype B, UniProt P03366, D666N/K669R/K818Q/T814F); type: biochemical; conditions: ATP-mediated excision by AZTr RT; chain-terminated primer
[2] = system: AZT-resistant HIV (D67N/K70R/T215F/K219Q); experiment: Single replication cycle antiviral assay, AZT-resistant virus; type: cell-based; conditions: read-out: EC50 AZTr HIV
[3] = system: NNRTI-resistant HIV (L100I/K103N); type: cell-based; conditions: read-out: EC50 NNRTIr HIV
HIV-1 IIIB = experiment: microbe, parasite or virus in culture; type: cell-based; conditions: Human immunodeficiency virus 1, IIIB, CEM-SS, read-out: Inhibition % @ 10 μM
[4] = Compound cytotoxicity / cell viability in the cytoprotection assay; type: cell-based; conditions: human, CEM-SS cells

Compound: Cc1cn([C@H]2C[C@H](n3nncc3-c3ccc(Cl)c(Cl)c3)[C@@H](CO)O2)c(=O)[nH]c1=O [Compound 18n, 1-((2R,4S,5S)-4-(5-(3,4-Dichlorophenyl)-1H-1,2,3-triazol-1-yl)-5-(hydroxymethyl)tetrahydrofuran-2-yl)-5-methylpyrimidine-2,4(1H,3H)-dione]
- antiviral activity in the single replication cycle assay (WT HIV-1): none showed significant antiviral activity

Compound: Cc1cn([C@H]2C[C@H](n3nncc3-c3ccc(Oc4ccccc4)cc3)[C@@H](CO)O2)c(=O)[nH]c1=O [Compound 18i, 1-((2R,4S,5S)-5-(Hydroxymethyl)-4-(5-(4-phenoxyphenyl)-1H-1,2,3-triazol-1-yl)tetrahydrofuran-2-yl)-5-methylpyrimidine-2,4(1H,3H)-dione]
- antiviral activity in the single replication cycle assay (WT HIV-1): none showed significant antiviral activity

Compound: Cc1cn([C@H]2C[C@H](n3nncc3-c3cccc4ccccc34)[C@@H](COP(=O)([O-])OP(=O)([O-])OP(=O)([O-])[O-])O2)c(=O)[nH]c1=O.[Na+].[Na+].[Na+].[Na+] [Compound 21a]
- rate of nucleotide excision of the terminal nucleotide [1]: 0.0126 min⁻¹

Compound: Cc1cn([C@H]2C[C@H](n3nncc3-c3ccc(-c4ccccc4)cc3)[C@@H](CO)O2)c(=O)[nH]c1=O [Compound 18j, 1-((2R,4S,5S)-4-(5-([1,1’-Biphenyl]-4-yl)-1H-1,2,3-triazol-1-yl)-5-(hydroxymethyl)tetrahydrofuran-2-yl)-5-methylpyrimidine-2,4(1H,3H)-dione]
- antiviral activity in the single replication cycle assay (WT HIV-1): none showed significant antiviral activity

Compound: 3’-Azidothymidine [AZT, reference compound]
- pEC50 [2]: 5.10
- rate of nucleotide excision of the terminal nucleotide [1]: 0.024 min⁻¹
- pEC50 [3]: 6.92
- pEC50 (WT HIV-1; read-out: Single Replication Cycle Assay EC50, WT HIV, WT HIV-1, P4R5 cells): 6.85

Compound: Cc1cn([C@H]2C[C@H](n3nncc3C3CCCCC3)[C@@H](CO)O2)c(=O)[nH]c1=O [Compound 18l, 1-((2R,4S,5S)-4-(5-Cyclohexyl-1H-1,2,3-triazol-1-yl)-5-(hydroxymethyl)tetrahydrofuran-2-yl)-5-methylpyrimidine-2,4(1H,3H)-dione]
- antiviral activity in the single replication cycle assay (WT HIV-1): did not produce significant antiviral activity; also recorded: none showed significant antiviral activity
- inhibition at 10 µM (HIV-1 IIIB): 100%
- viability at 6 days, 10 µM [4]: 100%

Compound: Cc1cn([C@H]2C[C@H](n3nncc3COc3cccc4ccccc34)[C@@H](CO)O2)c(=O)[nH]c1=O [Compound 9c, 1-((2R,4S,5S)-5-(Hydroxymethyl)-4-(5-((naphthalen-1-yloxy)methyl)-1H-1,2,3-triazol-1-yl)tetrahydrofuran-2-yl)-5-methylpyrimidine-2,4(1H,3H)-dione]
- antiviral activity in the single replication cycle assay (WT HIV-1): none showed significant antiviral activity

Compound: COc1ccc2cc(OCc3cnnn3[C@H]3C[C@H](n4cc(C)c(=O)[nH]c4=O)O[C@@H]3CO)ccc2c1 [Compound 9e, 1-((2R,4S,5S)-5-(Hydroxymethyl)-4-(5-(((6-methoxynaphthalen-2-yl)oxy)methyl)-1H-1,2,3-triazol-1-yl)tetrahydrofuran-2-yl)-5-methylpyrimidine-2,4(1H,3H)-dione]
- antiviral activity in the single replication cycle assay (WT HIV-1): none showed significant antiviral activity

From PMC4027054 (Journal of medicinal chemistry, 2013)
